This passage reports EC50 results from US10941152B2, “Pyrazole compounds as modulators of FSHR and uses thereof” (TOCOPHERX, INC., priority 2014, dated 2021).

For test [1], the target named is T1, follicle-stimulating hormone (FSH) receptor (Rattus norvegicus, UniProt P20395).
T1 construct: endogenous in cells; host or cells: rat granulosa cells
T1 sequence (P20395 18-692): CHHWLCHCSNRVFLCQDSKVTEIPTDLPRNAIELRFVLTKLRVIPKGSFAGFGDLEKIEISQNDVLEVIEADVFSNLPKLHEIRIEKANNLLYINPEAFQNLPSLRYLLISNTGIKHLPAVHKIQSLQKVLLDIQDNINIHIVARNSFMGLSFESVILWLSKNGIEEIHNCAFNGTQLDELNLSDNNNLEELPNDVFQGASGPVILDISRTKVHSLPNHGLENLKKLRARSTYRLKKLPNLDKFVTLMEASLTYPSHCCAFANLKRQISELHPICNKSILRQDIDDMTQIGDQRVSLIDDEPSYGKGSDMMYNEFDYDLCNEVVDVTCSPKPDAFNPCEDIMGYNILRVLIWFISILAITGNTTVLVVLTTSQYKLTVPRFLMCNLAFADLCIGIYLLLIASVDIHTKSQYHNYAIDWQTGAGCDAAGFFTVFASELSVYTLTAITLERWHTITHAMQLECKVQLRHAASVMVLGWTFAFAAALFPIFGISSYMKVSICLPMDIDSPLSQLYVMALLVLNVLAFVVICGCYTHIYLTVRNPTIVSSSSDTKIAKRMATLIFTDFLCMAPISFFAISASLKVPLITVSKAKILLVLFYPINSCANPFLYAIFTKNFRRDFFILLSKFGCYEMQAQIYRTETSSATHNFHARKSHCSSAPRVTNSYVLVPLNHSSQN
The test is described as follows: Rat granulosa EC50 FSH (Assay B). Type of test: cell-based. The method, then: Example 25. Rat granulosa EC50 FSH (Assay B)
The assay was performed pursuant to the teaching of Yanofsky et al. (2006) Allosteric activation of the follicle-stimulating hormone (FSH) receptor by selective, nonpeptide agonists (JBC 281(19): 13226-13233, which is incorporated by reference in the disclosure of the invention).

A further test concerns the target T2, FSHR (Homo sapiens, UniProt P23945).
T2 construct: expressed in transfected cells; host or cells: CHO (Cho-FSHR-LUC-1-1-43)
T2 sequence (P23945 18-695): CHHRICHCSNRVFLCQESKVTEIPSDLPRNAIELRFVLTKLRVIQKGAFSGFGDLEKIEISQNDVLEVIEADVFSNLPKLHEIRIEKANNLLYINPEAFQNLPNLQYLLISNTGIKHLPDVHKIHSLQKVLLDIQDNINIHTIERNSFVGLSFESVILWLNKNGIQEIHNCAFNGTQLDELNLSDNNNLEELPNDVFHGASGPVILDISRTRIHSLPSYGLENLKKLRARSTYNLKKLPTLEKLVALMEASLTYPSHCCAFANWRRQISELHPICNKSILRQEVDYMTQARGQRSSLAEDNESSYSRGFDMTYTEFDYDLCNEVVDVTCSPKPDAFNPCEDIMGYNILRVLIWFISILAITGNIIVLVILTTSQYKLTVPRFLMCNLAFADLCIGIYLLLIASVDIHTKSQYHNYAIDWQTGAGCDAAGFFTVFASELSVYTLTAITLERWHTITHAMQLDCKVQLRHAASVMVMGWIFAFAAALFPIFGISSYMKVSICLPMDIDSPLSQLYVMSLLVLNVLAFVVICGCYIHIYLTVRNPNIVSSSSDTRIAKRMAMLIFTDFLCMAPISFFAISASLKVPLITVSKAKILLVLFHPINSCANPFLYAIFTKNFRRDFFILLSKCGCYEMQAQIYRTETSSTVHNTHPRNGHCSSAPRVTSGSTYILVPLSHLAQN
Description: EC50 of cyclic AMP production in CHO FSHR cells + EC20 FSH (Assay A). The class given is cell-based. The conditions noted are these: cyclic AMP production in CHO FSHR cells + EC20 FSH (0.265 pM), HTRF. In outline:
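CHO cells expressing FSHR, stimulated 1 h at 37° C with compound plus EC20 FSH (0.265 pM final) and 200 μM IBMX. cAMP measured by HTRF (665/620 nm ratio) after 1 h at room temperature; effect expressed relative to maximum response of FSH standard.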
Background: In TR-FRET formats the signal depends on donor and acceptor labels being close together.

The structures appear in SMILES notation.

Turning to `COc1cc2c(cc1-c1nccnc1C#N)-c1c(c(C(=O)N(C)C(C)(C)C)nn1-c1cc(Cl)cc(Cl)c1)CO2` [Compound 112, N-tert-butyl-8-(3-cyanopyrazin-2-yl)-1-(3,5-dichlorophenyl)-7-methoxy-N-methyl-1,4-dihydrochromeno[4,3-c]pyrazole-3-carboxamide], the EC50 (commonly the concentration giving half of the maximal effect) is 101 to 500 nM in test [1] and 10 to 100 nM on FSHR.
As for `COc1cc(Cl)cc(-n2nc(C(=O)N(C)C(C)(C)C)c3c2-c2cc(-c4cnn(CC(=O)O)c4)c(OC)cc2OC3)c1` [Compound 85, 2-(4-(3-(tert-butyl(methyl)carbamoyl)-1-(3-chloro-5-methoxyphenyl)-7-methoxy-1,4-dihydrochromeno[4,3-c]pyrazol-8-yl)-1H-pyrazol-1-yl)acetic acid], the EC50 in test [1] is above 500 nM; at FSHR, 10 to 100 nM.
The like results for `COc1cc2c(cc1-c1cncc(CO)c1)-c1c(c(C(=O)N3CCOCC3(C)C)nn1-c1cc(Cl)cc(Cl)c1)CO2` [Compound 24, (1-(3,5-dichlorophenyl)-8-(5-(hydroxymethyl)pyridin-3-yl)-7-methoxy-1,4-dihydrochromeno[4,3-c]pyrazol-3-yl)(3,3-dimethylmorpholino)methanone] were, in that order, 10 to 100 nM and below 10 nM.
On to `COc1cc2c(cc1-c1cc(CO)ncc1F)-c1c(c(C(=O)N(C)C(C)(C)C)nn1-c1cc(F)cc(F)c1)CO2` [Compound 75, N-tert-butyl-1-(3,5-difluorophenyl)-8-(5-fluoro-2-(hydroxymethyl)pyridin-4-yl)-7-methoxy-N-methyl-1,4-dihydrochromeno[4,3-c]pyrazole-3-carboxamide], for which the EC50 (in test [1]; on FSHR) was 10 to 100 nM throughout.
For the compound `COc1cc2c(cc1-c1cncc(CO)c1)-c1c(c(C(=O)N(C)C(C)(C)C)nn1-c1cc(Cl)cc(Cl)c1)CO2` [Compound 23, N-tert-butyl-1-(3,5-dichlorophenyl)-8-(5-(hydroxymethyl)pyridin-3-yl)-7-methoxy-N-methyl-1,4-dihydrochromeno[4,3-c]pyrazole-3-carboxamide], the EC50 in test [1] was 10 to 100 nM; on FSHR, below 10 nM.
The like results for `COc1cc(Cl)cc(-n2nc(C(=O)N(C)C(C)(C)C)c3c2-c2cc(-c4cncc(C(N)=O)c4)c(OC)cc2OC3)c1` [Compound 156] were, in that order, 10 to 100 nM and below 10 nM.
The like results for `COc1cc2c(cc1-c1cccc(C#N)c1)-c1c(c(C(=O)N(C)C(C)(C)C)nn1-c1cc(Cl)cc(Cl)c1)CO2` [Compound 18, N-tert-butyl-8-(3-cyanophenyl)-1-(3,5-dichlorophenyl)-7-methoxy-N-methyl-1,4-dihydrochromeno[4,3-c]pyrazole-3-carboxamide] were, in that order, 101 to 500 nM and 10 to 100 nM.
The like results for `COc1cc(C(N)=O)cc(-c2cc3c(cc2OC)OCc2c(C(=O)N(C)C(C)(C)C)nn(-c4cc(Cl)cc(Cl)c4)c2-3)n1` [Compound 115, N-tert-butyl-8-(4-carbamoyl-6-methoxypyridin-2-yl)-1-(3,5-dichlorophenyl)-7-methoxy-N-methyl-1,4-dihydrochromeno[4,3-c]pyrazole-3-carboxamide] were, in that order, 101 to 500 nM and below 10 nM.
Consider `COc1cc(F)cc(-n2nc(C(=O)N3CCOCC3(C)C)c3c2-c2cc(-c4ccn(C)n4)c(OC)cc2OC3)c1` [Compound 53, (3,3-dimethylmorpholino)(1-(3-fluoro-5-methoxyphenyl)-7-methoxy-8-(1-methyl-1H-pyrazol-3-yl)-1,4-dihydrochromeno[4,3-c]pyrazol-3-yl)methanone], for which the EC50 in test [1] is 101 to 500 nM; on FSHR it was 10 to 100 nM.
The like results for `COc1cc2c(cc1-c1cncc(NC(C)=O)c1)-c1c(c(C(=O)N(C)C(C)(C)C)nn1-c1cc(Cl)cc(Cl)c1)CO2` [Compound 182, 8-(5-acetamidopyridin-3-yl)-N-tert-butyl-1-(3,5-dichlorophenyl)-7-methoxy-N-methyl-1,4-dihydrochromeno[4,3-c]pyrazole-3-carboxamide] were, in that order, below 10 nM and below 10 nM.
On the same counts, the results for `COc1cc2c(cc1-c1cncc(C#N)c1)-c1c(c(C(=O)N(C)C(C)(C)C)nn1-c1cc(Cl)cc(Cl)c1)CO2` [Compound 8, N-tert-butyl-8-(5-cyanopyridin-3-yl)-1-(3,5-dichlorophenyl)-7-methoxy-N-methyl-1,4-dihydrochromeno[4,3-c]pyrazole-3-carboxamide] are 101 to 500 nM and below 10 nM.
Consider `COc1cc2c(cc1-c1cnc(C)c(C(N)=O)c1)-c1c(c(C(=O)N(C)C(C)(C)C)nn1-c1cc(Cl)cc(Cl)c1)CO2` [Compound 170], for which the EC50 is 101 to 500 nM in test [1] and below 10 nM on FSHR.
On the same counts, the results for `COc1cc(OC)cc(-n2nc(C(=O)N(C)C(C)(C)C)c3c2-c2cc(-c4cc(C(N)=O)c[n+]([O-])c4)c(OC)cc2OC3)c1` [Compound 175] are 10 to 100 nM and below 10 nM.
`COc1cc2c(cc1-c1ccccc1F)-c1c(c(C(=O)N(C)C(C)(C)C)nn1-c1ccsc1)CO2` [Compound 63, N-tert-butyl-8-(2-fluorophenyl)-7-methoxy-N-methyl-1-(thiophen-3-yl)-1,4-dihydrochromeno[4,3-c]pyrazole-3-carboxamide]: the EC50 lay in the range of 101 to 500 nM in test [1] and 10 to 100 nM at FSHR.
The like results for `COc1cc2c(cc1-c1cccnc1F)-c1c(c(C(=O)N(C)C(C)(C)C)nn1-c1ccsc1)CO2` [Compound 55, N-tert-butyl-8-(2-fluoropyridin-3-yl)-7-methoxy-N-methyl-1-(thiophen-3-yl)-1,4-dihydrochromeno[4,3-c]pyrazole-3-carboxamide] were, in that order, 10 to 100 nM and below 10 nM.
On the same counts, the results for `COc1cc2c(cc1-c1cc(C(N)=O)c[n+]([O-])c1)-c1c(c(C(=O)N3CCOCC3(C)C)nn1-c1cc(Cl)cc(Cl)c1)CO2` [Compound 174, 3-carbamoyl-5-(1-(3,5-dichlorophenyl)-3-(3,3-dimethylmorpholine-4-carbonyl)-7-methoxy-1,4-dihydrochromeno[4,3-c]pyrazol-8-yl)pyridine 1-oxide] are 10 to 100 nM and below 10 nM.
The like results for `COc1cc2c(cc1-c1cnn(CC(=O)O)c1)-c1c(c(C(=O)N3CCOCC3(C)C)nn1-c1cc(F)cc(F)c1)CO2` [Compound 88, 2-(4-(1-(3,5-difluorophenyl)-3-(3,3-dimethylmorpholine-4-carbonyl)-7-methoxy-1,4-dihydrochromeno[4,3-c]pyrazol-8-yl)-1H-pyrazol-1-yl)acetic acid] were, in that order, 101 to 500 nM and 10 to 100 nM.
In the case of `COc1cc2c(cc1-c1cccc(C#N)c1F)-c1c(c(C(=O)N(C)C(C)(C)C)nn1-c1cc(Cl)cc(Cl)c1)CO2` [Compound 19, N-tert-butyl-8-(3-cyano-2-fluorophenyl)-1-(3,5-dichlorophenyl)-7-methoxy-N-methyl-1,4-dihydrochromeno[4,3-c]pyrazole-3-carboxamide], the EC50 in test [1] was 101 to 500 nM; at FSHR, below 10 nM.
The like results for `COc1cc2c(cc1-c1cncc(C#N)c1)-c1c(c(C(=O)N(C)C(C)(C)C#N)nn1-c1cc(F)cc(F)c1)CO2` [Compound 105, N-(2-cyanopropan-2-yl)-8-(5-cyanopyridin-3-yl)-1-(3,5-difluorophenyl)-7-methoxy-N-methyl-1,4-dihydrochromeno[4,3-c]pyrazole-3-carboxamide] were, in that order, 10 to 100 nM and below 10 nM.
On to `COc1cc2c(cc1-c1cncc(C(N)=O)c1)-c1c(c(C(=O)N(C)C(C)(C)C)nn1-c1ccccn1)CO2` [Compound 168], for which the results for the EC50 (in test [1]; on FSHR) were 101 to 500 nM and below 10 nM, respectively.
